T1: CAPN5-PC (calpain-5 protease core) (Homo sapiens, UniProt O15484)
T1 sequence (O15484 1-343): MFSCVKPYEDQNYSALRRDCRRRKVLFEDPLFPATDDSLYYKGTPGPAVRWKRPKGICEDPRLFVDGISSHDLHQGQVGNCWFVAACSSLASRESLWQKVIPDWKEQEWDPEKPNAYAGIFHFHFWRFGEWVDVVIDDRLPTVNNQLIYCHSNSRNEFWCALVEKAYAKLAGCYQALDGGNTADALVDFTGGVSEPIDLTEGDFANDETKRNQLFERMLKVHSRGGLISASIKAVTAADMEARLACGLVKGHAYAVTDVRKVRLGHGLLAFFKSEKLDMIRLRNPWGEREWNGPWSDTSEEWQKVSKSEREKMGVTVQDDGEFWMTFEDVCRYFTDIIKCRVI


Tests used:
[1] = target: T1, CAPN5-PC (calpain-5 protease core); test: inhibition of Ac-LLY-AFC hydrolysis by purified CAPN5-PC; type: biochemical
purified protein = substrate: CC(=O)N[C@@H](CC(C)C)C(=O)N[C@@H](CC(C)C)C(=O)N[C@@H](Cc1ccc(O)cc1)C(=O)Nc1ccc2c(C(F)(F)F)cc(=O)oc2c1; test: purified protein; conditions: Ca2+ ([…])

Row | Molecule | IC50 [1] | Km (purified protein)
1 | CC(C)C[C@H](NC(=O)[C@H]1O[C@@H]1C(=O)O)C(=O)NCCCCN=C(N)N [E-64] | 1200 ± 300 nM | –
2 | CAPN5-PC (calpain-5 protease core) (Homo sapiens) (protein) MFSCVKPYEDQNYSALRRDCRRRKVLFEDPLFPATDDSLYYKGTPGPAVRWKRPKGICEDPRLFVDGISSHDLHQGQVGNCWFVAACSSLASRESLWQKVIPDWKEQEWDPEKPNAYAGIFHFHFWRFGEWVDVVIDDRLPTVNNQLIYCHSNSRNEFWCALVEKAYAKLAGCYQALDGGNTADALVDFTGGVSEPIDLTEGDFANDETKRNQLFERMLKVHSRGGLISASIKAVTAADMEARLACGLVKGHAYAVTDVRKVRLGHGLLAFFKSEKLDMIRLRNPWGEREWNGPWSDTSEEWQKVSKSEREKMGVTVQDDGEFWMTFEDVCRYFTDIIKCRVI | – | 153 × 10^2 ± 38 μM

From article PMC7001764 (Cell reports, 2020)
